Measured values: patent US9592223B2, “Small molecule inhibitors of MALT1” (Cornell University, priority 2012, dated 2017)

Tests used:
LZ-MALT1 = biological target: T1, LZ-MALT1 (Homo sapiens, UniProt Q9UDY8); test: Dose-effect and time-course of MALT1 inhibition (pre-incubation, then Ac-LRSR-AMC); assay type: biochemical; conditions: pre-incubation 5 to 80 minutes
T1 construct: His tag (N); made in house; host or cells: E. coli
Procedure: The reactions were monitored in a SpectraMax M5 plate reader (Molecular Devices, Sunnyvale, Calif. USA) with excitation/emission wavelength at 360/465 nm and 20 seconds intervals. Normalized percentage of inhibition was calculated with the following formula: (M(T2-T1)−N(T2-T1))/(P(T2-T1)−N(T2-T1))*100, where M(T2-T1) is the difference signal of compound at time point 200s and 0s, N(T2-T1) is the difference signal of negative control buffer only, P(T2-T1) is the difference signal of positive control Z-VRPR-FMK.

[1] = test system: ABC-DLBCL cell lines HBL-1 and TMD8 vs GCB-DLBCL cell line OCI-Ly1; test: Cell proliferation of selected hits and analogs, ATP-based metabolic luminescent assay; design: species or system human
From the text: MALT1 activity plays an important role in selectively maintaining proliferation of ABC-DLBCL cell lines (Ngo et al., 2006). Accordingly ABC and GCB-DLBCL cell lines present differential sensitivity to MALT1 cleavage inhibition by the peptide Z-VRPR-FMK (Ferch et al., 2009; Hailfinger et al., 2009; Rebeaud et al., 2008). To determine whether candidate small molecules display a similar profile two ABC-DLBCL cell lines, HBL-1 and TMD8, and one GCB-DLBCL cell line, OCI-Ly1, were exposed to increasing concentrations of the nineteen selected molecules. Cell proliferation was measured 48 hr after exposure to a single dose of compound using an ATP-based metabolic luminescent assay (summarized in FIG. 1C).
A total of 704 analog compounds from available libraries with similarity score ≧70% (Tanimoto similarity functions) were screened by LZ-MALT1 fluorescence assay.
Cell proliferation was determined by ATP quantification using a luminescent method (CellTiter-Glo, Promega, Madison, Wis.) and Trypan blue dye-exclusion (Sigma, St. Louis, Mo.). […]
DLBCL cell lines were grown in exponential growth conditions during the 48 hr of treatment. Cell proliferation was determined by ATP quantification using a luminescent method (CellTiter-Glo, Promega, Madison, Wis.) and Trypan blue dye-exclusion (Sigma, St. Louis, Mo.). […]

[2] = biological target: T2, paracaspase domain of MALT1 (residues 329-728) (Homo sapiens, UniProt Q9UDY8); test: HSQC NMR binding; conditions: HSQC titration
T2 construct: labeled MALT1 (329-728) was expressed in BL21 (DE3) E. coli; made in house; host or cells: E. coli BL21 (DE3)
T2 sequence (Q9UDY8 329-728): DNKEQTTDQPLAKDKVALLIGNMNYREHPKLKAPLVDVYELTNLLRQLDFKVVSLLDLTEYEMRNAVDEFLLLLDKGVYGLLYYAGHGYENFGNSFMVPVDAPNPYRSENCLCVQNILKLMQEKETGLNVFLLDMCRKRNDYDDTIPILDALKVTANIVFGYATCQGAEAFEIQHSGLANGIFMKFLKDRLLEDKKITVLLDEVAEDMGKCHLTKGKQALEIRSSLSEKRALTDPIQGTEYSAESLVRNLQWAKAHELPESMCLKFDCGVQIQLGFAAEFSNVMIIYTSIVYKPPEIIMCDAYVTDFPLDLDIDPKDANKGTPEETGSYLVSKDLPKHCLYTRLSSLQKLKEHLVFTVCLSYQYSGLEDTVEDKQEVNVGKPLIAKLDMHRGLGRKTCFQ
Procedure: Uniformly ^15N and ^13C labeled MALT1 (329-728) was expressed in BL21 (DE3) E. coli growing in M9 medium containing 1 g/l [^15N]ammonium chloride and 3 g/l [^13C]glucose (Cambridge Isotope Labs, Andover, Mass.) and purified from E. coli cell lysate as described in (Wiesmann et al., 2012).
Standard 2D ^1H ^13C NMR spectra of MALT1 (329-728) were recorded in samples containing 10.0 mg/ml protein in 50 mM HEPES (pH 7.5), 50 mM NaCl, and 10% D2O. NMR spectroscopy experiments were recorded on Bruker AV 500 MHz spectrometer (Bruker, Billerica, Mass.), at 310K.
Standard 2D ^1H ^15N HSQC spectra of MALT1 (329-728) were recorded in samples containing 70 μM protein in 25 mM Tris pH 7.5, 250 mM NaCl, 5 mM DTT, 10% D2O, 0.02% NaN3, 2% DMSO. HSQCs were run on a 600 MHz Varian (Varian, Palo Alto, Calif.) at 37° C.

[3] = biological target: T3, MALT1 paracaspase domain (329-728) (Homo sapiens, UniProt Q9UDY8); test: LC-MS covalent modification; assay type: binding
T3 construct: MALT1 paracaspase domain (329-728) presented a major peak at 55,988.4 Da
T3 sequence (Q9UDY8 329-728): as above
Procedure: The final results were ranked on the predicted binding free energy and the cluster size for each docking conformation.
HPLC/ESI-MS experiments were carried out on 5 μl sample at 1 mg/ml protein concentration. Separation of proteins was performed on a HP 1100 system (Hewlett Packard, Palo Alto, Calif., USA) employing a 1 mm×150 mm LC Packings column packed with POROS R1/H (Perseptive Biosystems, Foster City, Calif., USA). The column was kept at 80° C. Samples were injected onto the column using a CTC PAL autosampler (CTC, Zwingen Switzerland) fitted with a Valco model C6UW HPLC valve (Valco, Houston, Tex., USA) and a 10 μl injection loop. HPLC was controlled by MassLynx software (Micromass, Manchester, UK). UV detection was performed at 214 nm. Eluent A was water containing 0.05% TFA. Eluent B was a 1:9 mixture of water:acetonitrile containing 0.045% TFA. A gradient from 20% B to 90% B was run in 20 minutes. The flow rate was typically 60 μl/min. The total flow from the LC system was introduced into the UV detection cell prior to introduction in the ESI source. The HPLC system was controlled and the signal from the UV detector was processed using MassLynx software. […] Data were recorded and processed using MassLynx software. […]

T1 sequence (Q9UDY8 with tags, fused parts or gaps limits assumed): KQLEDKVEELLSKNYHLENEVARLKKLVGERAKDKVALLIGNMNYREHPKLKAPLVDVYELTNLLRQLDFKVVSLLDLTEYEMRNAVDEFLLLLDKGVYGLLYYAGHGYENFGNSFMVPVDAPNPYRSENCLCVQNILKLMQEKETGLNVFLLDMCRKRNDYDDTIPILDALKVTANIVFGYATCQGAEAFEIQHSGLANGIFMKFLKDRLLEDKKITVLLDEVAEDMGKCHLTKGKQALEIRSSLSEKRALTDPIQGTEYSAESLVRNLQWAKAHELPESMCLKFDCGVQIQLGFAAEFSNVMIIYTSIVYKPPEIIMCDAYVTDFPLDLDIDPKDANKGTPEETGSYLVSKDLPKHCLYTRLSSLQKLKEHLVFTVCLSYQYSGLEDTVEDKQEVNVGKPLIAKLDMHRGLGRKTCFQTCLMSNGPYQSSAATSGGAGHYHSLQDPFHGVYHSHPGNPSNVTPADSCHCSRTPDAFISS

## COCCOc1nc(-c2ccc(Cl)c(Cl)c2)n(-c2ccc(NC(=O)CCl)cc2)n1 [MI-2]
LZ-MALT1
  kind of inhibition (time dependence): covalent and irreversible inhibition
  percent MALT1 inhibition reached: ~100%
[1]; 48 hr
  GI25 concentrations: high nanomolar range
[1]; 48 hr after a single dose, increasing concentrations
  suppression of cell proliferation, ABC-DLBCL vs GCB-DLBCL cell lines: significant selective dose-dependent suppression of ABC-DLBCL cells
[2]
  binding by NMR spectroscopy: robust interaction
[3]; LC-MS
  covalent binding to MALT1: bind covalently
[3]; LC-MS, 55,988.4 Da shifted to 56,407.5 Da
  increase of the major peak of MALT1 upon incubation: 419.1 Da
